The text below walks through data of US7045533B2, “Naphthalene derivatives” (Novartis AG, priority 2000, dated 2006).

One data set relates to Wistar rats. Kind of data set: Test II: Neuropathic Pain Model (partial ligation of the sciatic nerve, mechanical hyperalgesia). The data set is classed as in vivo. Conditions: p.o.; dose necessary to produce 50% reversal of hyperalgesia; rat. From the text:
Test II: Neuropathic Pain Model
Hyperalgesia is examined in the model of neuropathic pain Induced by partial ligation of the sciatic nerve as described by Seltzer et al. (1990). Briefly, Wistar rats (120–140 g) are anaesthetised, the left sciatic nerve exposed at mid-thigh level through a small incision and ⅓ to ½ of the nerve thickness tightly ligated within a 7.0 silk suture. The wound is closed with a single muscle suture and skin clips and dusted with Aureomycin antibiotic powder. The animals are allowed to recover and used 12–15 days following surgery.
Mechanical hyperalgesia is assessed by measuring paw withdrawal thresholds to an increasing pressure stimulus placed onto the dorsal surface of the paw using an analgesymeter (Ugo-Basile, Milan) with a cut-off of 250 g. Withdrawal thresholds are measured on both the ipsilateral (ligated) and contralateral (unligated) paw prior to (predose) and then up to 6 h following drug or vehicle administration. Data are expressed as withdrawal threshold (g) and percentage reversal of hyperalgesia calculated according to the following formula: […]
Potency is expressed as D50 value, i.e. the dose of compound necessary to produce 50% reversal of hyperalgesia.

Regarding `CCCCCOc1ccc([S+]([O-])c2cccc3ccccc23)c2ccccc12` (centres unmarked), the melting point (usually the temperature of the solid-liquid transition) was 88 to 91 °C.

Turning to `CCCCCOc1ccc(C(=O)c2cccc3ccccc23)c2ccccc12` [Example 1, naphthalen-1-yl-(4-pentyloxy-naphthalen-1-yl)-methanone], in the data set on Wistar rats, the “D50 value in the neuropathic pain model” value turned out to be 0.18 mg/kg. As for `CCCCCOc1ccc(S(=O)(=O)N2CCCc3ccccc32)c2ccccc12`, the melting point lay within 78 to 80 °C.

Compound `CCCCCOc1ccc(C(=O)Oc2cccc3ccccc23)c2ccccc12` returned a melting point of 95 to 100 °C.

`CCCCCOc1ccc(S(=O)(=O)c2cccc3ccccc23)c2ccccc12` had a melting point of 143 to 144 °C.
